Measurements from PubChem BioAssay (NCI).
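Results reflect a 48-hour exposure of cells in 96-well plates to compound at five concentrations. At the GI50, growth is halved. TGI: total growth inhibition.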

What was measured:
Experiment in all cases: NCI tumour cell line growth inhibition, 48 h
[1] = system: MCF7 breast
[2] = system: SK-OV-3 ovarian
[3] = system: HT29 colon
[4] = system: SK-MEL-2 melanoma
[5] = system: OVCAR-3 ovarian
[6] = system: IGROV1 ovarian
[7] = system: SN12C renal
[8] = system: HCC-2998 colon
[9] = system: SK-MEL-28 melanoma
[10] = system: NCI/ADR-RES ovarian
[11] = system: MDA-MB-435
[12] = system: A549 NSCLC
[13] = system: SF-539 CNS
[14] = system: ACHN renal
[15] = system: UO-31 renal
[16] = system: PC-3 prostate
[17] = system: HCT-116 colon
[18] = system: TK-10 renal
[19] = system: HOP-62 NSCLC
[20] = system: A498 renal
[21] = system: SR leukemia
[22] = system: U251 CNS
[23] = system: SNB-19 CNS
[24] = system: UACC-62 melanoma
[25] = system: NCI-H23 lung
[26] = system: RXF 393 renal
[27] = system: HCT-15 colon
[28] = system: OVCAR-5 ovarian
[29] = system: CCRF-CEM leukemia
[30] = system: MDA-MB-231 breast
[31] = system: MALME-3M melanoma
[32] = system: K-562 leukemia
[33] = system: OVCAR-4 ovarian
[34] = system: T-47D breast
[35] = system: MOLT-4 leukemia
[36] = system: SW-620 colon
[37] = system: HOP-92 NSCLC
[38] = system: SNB-75 CNS
[39] = system: NCI-H226 lung
[40] = system: SF-295 CNS
[41] = system: COLO 205 colon
[42] = system: NCI-H460 lung
[43] = system: RPMI-8226 leukemia
[44] = system: M14 melanoma
[45] = system: BT-549 breast
[46] = system: HS 578T breast
[47] = system: HL-60(TB) leukemia
[48] = system: EKVX NSCLC
[49] = system: UACC-257 melanoma
[50] = system: LOX IMVI melanoma
[51] = system: CAKI-1 renal
[52] = system: SK-MEL-5 melanoma
[53] = system: OVCAR-8 ovarian
[54] = system: NCI-H522 lung
[55] = system: 786-0 renal
[56] = system: KM12 colon
[57] = system: SF-268 CNS
[58] = system: DU-145 prostate

COc1cc2c(cc1C)NC(=O)/C2=C\c1cc(OC)c(OC)c(OC)c1
GI50 [1]: 42.2 µM | TGI [1]: > 100 µM | GI50 [2]: 83.3 µM | TGI [2]: > 100 µM | GI50 [3]: > 100 µM | TGI [3]: > 100 µM | GI50 [4]: 34.3 µM | TGI [4]: > 100 µM | GI50 [5]: > 100 µM | TGI [5]: > 100 µM | GI50 [6]: 72.1 µM | TGI [6]: > 100 µM | GI50 [7]: > 100 µM | TGI [7]: > 100 µM | GI50 [8]: > 100 µM | TGI [8]: > 100 µM | GI50 [9]: > 100 µM | TGI [9]: > 100 µM | GI50 [10]: > 100 µM | TGI [10]: > 100 µM | GI50 [11]: > 100 µM | TGI [11]: > 100 µM | GI50 [12]: > 100 µM | TGI [12]: > 100 µM | GI50 [13]: 48.4 µM | TGI [13]: > 100 µM | GI50 [14]: 64.1 µM | TGI [14]: > 100 µM | GI50 [15]: > 100 µM | TGI [15]: > 100 µM | GI50 [16]: > 100 µM | TGI [16]: > 100 µM | GI50 [17]: 33 µM | TGI [17]: > 100 µM | GI50 [18]: 93.7 µM | TGI [18]: > 100 µM | GI50 [19]: 22.1 µM | TGI [19]: 53.9 µM | GI50 [20]: 31.1 µM | TGI [20]: > 100 µM | GI50 [21]: 11.5 µM | TGI [21]: 47.4 µM | GI50 [22]: 22.9 µM | TGI [22]: > 100 µM | GI50 [23]: 91.9 µM | TGI [23]: > 100 µM | GI50 [24]: 37.3 µM | TGI [24]: > 100 µM | GI50 [25]: 29.7 µM | TGI [25]: > 100 µM | GI50 [26]: 14.2 µM | TGI [26]: 36.1 µM | GI50 [27]: > 100 µM | TGI [27]: > 100 µM | GI50 [28]: 32.2 µM | TGI [28]: > 100 µM | GI50 [29]: 8.18 µM | TGI [29]: 32.1 µM | GI50 [30]: 15.8 µM | TGI [30]: 59.2 µM | GI50 [31]: 72.3 µM | TGI [31]: > 100 µM | GI50 [32]: 23.2 µM | TGI [32]: 70.1 µM | GI50 [33]: > 100 µM | TGI [33]: > 100 µM | GI50 [34]: > 100 µM | TGI [34]: > 100 µM | GI50 [35]: 12.5 µM | TGI [35]: 38.8 µM | GI50 [36]: > 100 µM | TGI [36]: > 100 µM | GI50 [37]: 10.4 µM | TGI [37]: 30.6 µM | GI50 [38]: 12.9 µM | TGI [38]: 31.4 µM | GI50 [39]: > 100 µM | TGI [39]: > 100 µM | GI50 [40]: 39.5 µM | TGI [40]: > 100 µM | GI50 [41]: > 100 µM | TGI [41]: > 100 µM | GI50 [42]: > 100 µM | TGI [42]: > 100 µM | GI50 [43]: > 100 µM | TGI [43]: > 100 µM | GI50 [44]: > 100 µM | TGI [44]: > 100 µM | GI50 [45]: 29.6 µM | TGI [45]: > 100 µM | GI50 [46]: 58.3 µM | TGI [46]: > 100 µM | GI50 [47]: 13.8 µM | TGI [47]: 45.7 µM | GI50 [48]: > 100 µM | TGI [48]: > 100 µM | GI50 [49]: 91.2 µM | TGI [49]: > 100 µM | GI50 [50]: > 100 µM | TGI [50]: > 100 µM | GI50 [51]: > 100 µM | TGI [51]: > 100 µM | GI50 [52]: > 100 µM | TGI [52]: > 100 µM | GI50 [53]: > 100 µM | TGI [53]: > 100 µM | GI50 [54]: > 100 µM | TGI [54]: > 100 µM | GI50 [55]: 32.4 µM | TGI [55]: > 100 µM | GI50 [56]: > 100 µM | TGI [56]: > 100 µM | GI50 [57]: > 100 µM | TGI [57]: > 100 µM

CC[N+](C)(CC)CCN1C(=O)c2ccccc2S1(=O)=O
TGI [1]: > 100 µM | TGI [2]: > 100 µM | TGI [3]: > 100 µM | TGI [4]: > 100 µM | TGI [5]: > 100 µM | TGI [6]: > 100 µM | TGI [7]: > 100 µM | TGI [9]: > 100 µM | TGI [10]: > 100 µM | TGI [11]: > 100 µM | TGI [12]: > 100 µM | TGI [13]: > 100 µM | TGI [14]: > 100 µM | TGI [15]: > 100 µM | TGI [16]: > 100 µM | TGI [17]: > 100 µM | TGI [18]: > 100 µM | TGI [19]: > 100 µM | TGI [58]: > 100 µM | TGI [20]: > 100 µM | TGI [22]: > 100 µM | TGI [23]: > 100 µM | TGI [24]: > 100 µM | TGI [25]: > 100 µM | TGI [26]: > 100 µM | TGI [27]: > 100 µM | TGI [28]: > 100 µM | TGI [29]: > 100 µM | TGI [30]: > 100 µM | TGI [31]: > 100 µM | TGI [33]: > 100 µM | TGI [34]: > 100 µM | TGI [35]: > 100 µM | TGI [36]: > 100 µM | TGI [37]: > 100 µM | TGI [38]: > 100 µM | TGI [39]: > 100 µM | TGI [40]: > 100 µM | TGI [41]: > 100 µM | TGI [42]: > 100 µM | TGI [43]: > 100 µM | TGI [44]: > 100 µM | TGI [45]: > 100 µM | TGI [46]: > 100 µM | TGI [47]: > 100 µM | TGI [48]: > 100 µM | TGI [49]: > 100 µM | TGI [50]: > 100 µM | TGI [51]: > 100 µM | TGI [52]: > 100 µM | TGI [53]: > 100 µM | TGI [54]: > 100 µM | TGI [55]: > 100 µM | TGI [56]: > 100 µM | TGI [57]: > 100 µM
